From publication PMC10720383, “Acetylcholinesterase Inhibition in Rats and Humans Following Acute Fenitrothion Exposure Predicted by Physiologically Based Kinetic Modeling-Facilitated Quantitative In Vitro to In Vivo Extrapolation” (Environmental Science & Technology, 2023)
Like-named read-outs stand apart in the source and are kept apart here.

Tests used:
[1] = test system: CYP450s; assay: in vitro; format: in vitro ADME; conditions: both sexes, Sprague-Dawley, rat, pH 7.4, rat liver microsomes, gender-mixed
Procedure: In vitro incubations were performed to obtain kinetic parameters for the CYP450s-catalyzed conversion of FNT to FNO and MNP using gender-mixed rat and human liver microsomes. For the PON1-dominated detoxification of FNO to MNP, in vitro incubations were conducted with gender-mixed liver microsomes or plasma from rats and humans. Sample extraction with diisopropyl ether was performed before UPLC-PDA analysis. More details on in vitro incubations, sample extraction, UPLC-PDA analysis, and calculation of kinetic parameters are provided in the Supporting Information.
Supplementary materials and methods
Chemical and biological materials […]
Human liver microsomes (pooled from 150 donors, mixed gender) and pooled male rat liver microsomes (Sprague-Dawley) were purchased from Corning (Amsterdam, The Netherlands). […] Human plasma (pooled from 25 donors, mixed gender) and rat plasma (Sprague-Dawley, mixed gender) were ordered from BioIVT (West Sussex, UK), and corresponding total protein concentrations were determined using BCA protein assay (Supporting Information). […]

[2] = test system: erythrocyte AChE; assay: PBK modeling-facilitated QIVIVE and BMD analysis, rat; conditions: erythrocyte AChE inhibition, acute oral FNT exposure
Procedure: For toxicity prediction, the maximum blood FNO concentration was used as a dose metric relating AChE inhibition to acute FNT exposure (see section 3.3). Since the in vitro AChE inhibition under increasing FNO concentrations was tested in rat and human blood, these nominal concentrations could be used directly as the biological effective concentrations (in vivo maximum blood FNO concentrations), and no extra correction for differences in in vitro and in vivo protein binding was deemed necessary. Then the corresponding FNT dose levels resulting in these in vivo concentrations were derived via PBK modeling-facilitated reverse dosimetry. In doing so, the in vitro concentration–response relationship was converted to the predicted in vivo dose-dependent erythrocyte AChE inhibition, which was then compared to available in vivo toxicity data in rats and humans.[8],[39]
BMD modeling was used to derive POD values from the predicted in vivo dose-dependent data sets for rats and humans. A BMD value resulting in a 10% benchmark response (BMR) change with lower 95% confidence limit was defined as BMDL10, and the obtained values for rats and humans were evaluated against the reported NOAELs.[1],[11]−[13] Details and results of BMD analysis are provided in the Supporting Information. […]
BMD modeling was used to derive POD values from the predicted in vivo dose-response curves for rats and humans. […]

[3] = cited from earlier work
[4] = rats, oral exposure; cited from earlier work

## COP(=S)(OC)Oc1ccc([N+](=O)[O-])c(C)c1 [FNT, O,O-dimethyl O-4-nitro-m-tolyl phosphorothioate]
[1]; read-out: Km, FNT to FNO (CYP450s-catalyzed)
  Km: 8.28 µM
[1]; read-out: Km, FNT to MNP (CYP450s-catalyzed)
  Km: 20.5 µM
[2]; 10% BMR, lower 95% confidence limit
  predicted BMDL10 (POD): 1.30 mg/kg BW
[2]; upper confidence limit
  BMDU10: 1.71 mg/kg BW
[3]; not clear if experimental or in silico, ref WHO 2004
  LogP, reported data: 3.16
[3]; ref JMPR 2003
  LogP, experimental data: 3.319
[4]
  fraction of the dose absorbed (Fa): 0.9
